Measured values from US8043623B2, “Immunogenic peptides for the treatment of prostate and breast cancer” (The Government of the United States of America as …, priority 2003, dated 2011).
“Also recorded” adds a separate entry of the source.

How the values were obtained:
HLA-A2.1 molecules = target: T1, HLA-A2.1 molecules (Homo sapiens, UniProt P04439, D140Y/D185E/D98H/E176V/E277Q/G131W/G231S/I119V/I121R/I166T/I218V/L300P/L318F/N151K/N90K/P208A/P217A/Q86G/Q94H/R138H/R169H/T345S); assay: T2-binding assay; settings: T2 cells; for binding capacity to HLA-A2.1 molecules: overnight with β2-microglobulin, anti-HLA-A2 staining
T1 construct: The T2 cell line is deficient in TAP1 and TAP2 transporter proteins and expresses low levels of HLA-A2.1; endogenous in cells; host or cells: T2 cell line (TAP1/TAP2-deficient)
Description: T2-binding assay. Peptide binding capacity to HLA-A2.1 molecules was measured by using the T2 cell line according to a protocol previously described (Nijman et al., Eu. J. Immunol. 23:1215, 1993). T2 cells (3×10^5/well) were incubated overnight in 96-well plates with culture medium (1:1 mixture of RPMI 1640/EHAA containing 2.5% FBS, 100 U/ml penicillin, 100 μg/ml streptomycin) with 10 μg/ml β2-microglobulin (Sigma) and different concentrations of peptide. Cells were washed twice with cold PBS containing 2% FBS and incubated for 30 minutes at 4° C. with anti-HLA-A2.1 BB7.2 mAb ( 1/80 dilution from hybridoma supernatant). After washing, cells were stained with FITC-labeled goat anti-mouse Ig (PharMingen, San Diego, Calif.) and the level of HLA-A2.1 expression was measured by flow cytometry. HLA-A2.1 expression was quantified as fluorescence index (FI) according to the formula: FI=(mean fluorescence intensity with peptide-mean fluorescence intensity without peptide)/mean fluorescence intensity without peptide.

A2K^b transgenic mice = assay: Immunization of A2K^b transgenic mice; murine CTL assay and intracellular IFN-γ staining; type: in vivo; settings: for cross-reactivity of murine CD8^+ CTL induced with the peptide: recognition of wild-type TARP-29-37 and other peptides on pulsed targets: Jurkat-HLA-A2 targets pulsed with peptides; for frequency of CD8^+ T cells specific for the individual peptide, compared to wild-type TARP-29-37: mice immunized s.c. with peptide and cytokine in adjuvant, IFN-γ staining; for number of IFN-γ-producing CD8^+ T cells, of total CD8^+ T cells: mice immunized with peptide-pulsed DC, intracellular staining
Description: Immunizations. A2K^b transgenic mice were immunized with syngeneic peptide-loaded dendritic cells (DC), plasmid DNA expressing TARP, or the mixture of peptide and cytokine in incomplete Freund's adjuvant (IFA). For DC immunization, DC were pulsed with 10 μM peptide in serum-free RPMI for 2 hours at 37° C., and then mice were immunized subcutaneously (s.c.) with 1-3×10^5 DC without washing. DC were prepared from bone marrow as previously described (Celluzzi et al. J. Exp. Med. 183:283, 1996). Alternatively, mice were immunized intramuscularly with 100 μg plasmid DNA, pcDNA5/FRT/TARP, generated by inserting the TARP DNA into the pcDNA5/RFT (Invitrogen, Carlsbad, Calif.) vector. Mice were also immunized subcutaneously (s.c.) in the base of the tail with 100 μl of an emulsion containing 1:1 IFA and PBS with antigens and cytokines (50 nmol CTL epitope, 50 nmol HBV core 128-140 helper epitope, 3 μg of IL-12, and 5 μg of granulocyte macrophage colony stimulating factor (GM-CSF). IFA and cytokines were purchased from Sigma and Peptotech (Rocky Hill, N.J.), respectively.
(§1) CTL assay. For murine CTL, CD8^+ T cells from the immunized mice were restimulated with peptide-loaded splenocytes for one week as previously described (Oh et al., J Immunol 170:2523, 2003), and then applied to 5 hour ^51Cr release assays. Target cells were labeled with ^51Cr first and washed twice. Cells were then pulsed with peptides for 2 hours and used as target cells without further washing. For human CTL, target cells were also labeled with ^51Cr first, and then loaded with peptides. In the CTL assay against human tumor cells, target cells were incubated in the complete medium containing 1000 units/ml IFN-γ for 72 hours. The mean of triplicate samples was calculated, and the percentage of specific lysis was determined using the following formula: Percentage of specific lysis=100×[(experimental ^51Cr release−control ^51Cr release)/(maximum ^51Cr release−control ^51Cr release)]. The maximum release refers to counts from targets in 2.5% Triton X-100.
Antibody and flow cytometry. FITC-labeled anti-mouse CD8 (53-6.7), CD11c, CD80 (B7-1), CD54 (ICAM-1), anti-human CD8 (RPA-T8), CD14 (M5E2), CD80 (B7-1), and CD86 (B7-2) were used for staining of cell surface molecules. For intracellular IFN-γ staining, cells were stained by following the manufacturer's protocol. All Abs and reagents were purchased from PharMingen. For flow cytometric analysis of cell surface, 5×10^5 cells were washed and resuspended in PBS containing 0.2% BSA and 0.1% sodium azide. Cells were incubated on ice with the appropriate antibody for 30 minutes and then washed. Samples were analyzed on a FACScan (BD Biosciences, Mountain View, Calif.). Background staining was assessed by use of an isotype control antibody. For tetramer staining, cells were incubated with FITC-labeled anti-CD8 for 10 minutes, and then stained with tetramers.

CD8^+ T cells = assay: In vitro human CD8^+ T cell priming with peptide-pulsed DC; type: cell-based; settings: CD8^+ T cells of an HLA-A2.1-positive prostate cancer patient, peptide-pulsed autologous DC
Description: (§2) In vitro human CD8^+ T cell priming with DC. Elutriated monocytes and lymphocytes were obtained from HLA-A2.1-positive patients or normal donors. To prepare DC, monocytes were cultured at 10^6 cells/ml in complete medium containing human IL-4 (1000 units/ml) and human GM-CSF (1000 units/ml). On day 2 and 4, half of the media was exchanged. To mature the DC, CD40 ligand trimer (Immunex, Seattle, Wash.) was added at 1 μg/ml on day 4 or 5, and then further cultured for 2 or 3 days. Cells were harvested on day 7, and then pulsed with 10 μM of peptides for 2 hours before γ-irradiation. 1×10^5 peptide-pulsed DC and 2×10^6 autologous CD8^+ T cells were mixed and cultured in 24-well plates. 10 units/ml IL-2 was added on day 2 during restimulation. Cells were restimulated every 7-9 days approximately 4-7 cycles.

[1] = test system: peptide-pulsed C1R-A2.1 target cells; assay: Human CTL 5-hour ^51Cr release assay on peptide-pulsed targets; type: cell-based; settings: for cytolytic activity of human CD8^+ CTL raised with the peptide against targets pulsed with the corresponding peptide / recognition of TARP-27-35 by human CTL raised with the peptide: C1R-A2.1 targets; for cross-reactivity of human CD8^+ CTL raised with the peptide to other peptides (wild-type TARP-29-37, enhanced epitopes): C1R-A2.1 targets pulsed with 10 μM peptides; for peptide concentration at which CTLs specific for TARP-29-37-9V recognize targets pulsed with the named peptide (avidity): label = peptide pulsed on targets, effector = TARP-29-37-9V-specific human CTL
Description: as §2, §1

MCF-7 = assay: CTL assay against human tumor cells (MCF-7); type: cell-based
Description: as §2, §1

[2] = 50:1 E/T ratio, targets pre-incubated with IFN-γ 72 hours

Substance: FLANFSLML (TARP peptide with a R3A substitution.) [TARP-29-37-3A]
- binding affinity to HLA-A2.1 molecules compared with another peptide (HLA-A2.1 molecules): greatest increase in the binding affinity; also recorded: not less than that of the positive control peptide, FMP; also recorded: highest binding affinity
- cross-reactivity of murine CD8^+ CTL induced with the peptide: recognition of wild-type TARP-29-37 and other peptides on pulsed targets (A2K^b transgenic mice; ^51Cr release): recognized TARP-29-37-3A/MHC complex better than other peptide/MHC Class I complexes; also recorded: weak cross-reactivity to wild-type peptide in the mice
- killing of target cells pulsed with TARP-27-35 by murine CTL induced with the peptide (A2K^b transgenic mice; ^51Cr release): did not kill target cells pulsed with TARP-27-35
- frequency of CD8^+ T cells specific for the individual peptide, compared to wild-type TARP-29-37 (A2K^b transgenic mice): almost two-fold higher frequencies of CD8^+ T cells; also recorded: high CD8^+ T cell responses in transgenic mice
- cycles of in vitro restimulation needed to detect peptide-specific CD8^+ T cells (CD8^+ T cells): after only four cycles
- cytolytic activity of human CD8^+ CTL raised with the peptide against targets pulsed with the corresponding peptide [1]: higher levels of cytolytic activity against the corresponding peptides
- recognition of TARP-27-35 by human CTL raised with the peptide [1]: to some extent
- cross-reactivity of human CD8^+ CTL raised with the peptide to other peptides (wild-type TARP-29-37, enhanced epitopes) [1]: poorly recognized the wild-type and TARP-29-37-9V; also recorded: did not recognize other peptides as much as they did the immunogens; also recorded: did not recognize wild-type peptide very well in the human
- peptide concentration at which CTLs specific for TARP-29-37-9V recognize targets pulsed with the named peptide (avidity) [1]: only slightly lower avidity
- lytic activity against MCF-7 of CD8^+ CTL specific for the peptide (MCF-7; [2]): less lytic activity to MCF-7; also recorded: much lower lytic activity against tumor cells than CTLs to TARP-29-37-9V
- lytic activity against MCF-7 of CD8^+ CTL specific for the peptide (MCF-7; 100:1 E/T ratio): comparable range of lytic activity against MCF-7 cells; also recorded: significant range of specific lysis only at a 100:1 E:T ratio

Substance: FLRNFSLML (listed as Homo sapiens) [TARP-29-37]
- binding capacity to HLA-A2.1 molecules (HLA-A2.1 molecules): showed measurable binding capacity
- peptide-specific CD8^+ T cell responses (CTL) (A2K^b transgenic mice; mice immunized with peptide-pulsed DC or plasmid DNA expressing TARP): lower peptide-specific CD8^+ T cell responses
- number of IFN-γ-producing CD8^+ T cells, of total CD8^+ T cells (A2K^b transgenic mice): significant number of CD8^+ T cells producing IFN-γ
- recognition of TARP-27-35 by human CTL raised with the peptide [1]: to some extent
- cross-reactivity of human CD8^+ CTL raised with the peptide to other peptides (wild-type TARP-29-37, enhanced epitopes) [1]: could recognize and lyse target cells pulsed with the wild-type as well as the two enhanced epitopes; also recorded: killed the wild-type peptide (TARP-29-37, SEQ ID NO: 5)-pulsed target cells efficiently; also recorded: could recognize all four peptide/MHC complexes
- peptide concentration at which CTLs specific for TARP-29-37-9V recognize targets pulsed with the named peptide (avidity) [1]: only slightly lower avidity

Substance: FVFLRNFSL (listed as Homo sapiens) [TARP-27-35]
- binding affinity to HLA-A2.1 molecules compared with another peptide (HLA-A2.1 molecules): almost a ten-fold higher binding affinity
- binding capacity to HLA-A2.1 molecules (HLA-A2.1 molecules): showed measurable binding capacity
- cross-reactivity of murine CD8^+ CTL induced with the peptide: recognition of wild-type TARP-29-37 and other peptides on pulsed targets (A2K^b transgenic mice; ^51Cr release): did not recognize TARP-29-37
- frequency of CD8^+ T cells specific for the individual peptide, compared to wild-type TARP-29-37 (A2K^b transgenic mice): higher frequency of CD8^+ CTL specific for the peptide
- number of IFN-γ-producing CD8^+ T cells, of total CD8^+ T cells (A2K^b transgenic mice): 2.1%
- cytolytic activity of human CD8^+ CTL raised with the peptide against targets pulsed with the corresponding peptide [1]: higher levels of cytolytic activity against the corresponding peptides; also recorded: lysed TARP-27-35-pulsed target cells
- cross-reactivity of human CD8^+ CTL raised with the peptide to other peptides (wild-type TARP-29-37, enhanced epitopes) [1]: poorly recognized other peptide/MHC complexes tested; also recorded: did not recognize other peptides as much as they did the immunogens
- lytic activity against MCF-7 of CD8^+ CTL specific for the peptide (MCF-7; [2]): higher lytic activity against MCF-7; also recorded: could kill human tumor cells as well

Substance: TARP-2-9: amino acids 2-9 of SEQ ID NO: 1 (QMFPPSPL; listed as Homo sapiens)
- binding capacity to HLA-A2.1 molecules (HLA-A2.1 molecules): Neither TARP-2-9 nor TARP-22-30 showed any measurable binding affinity

Substance: TARP-22-30: amino acids 22-30 of SEQ ID NO: 1 (RLEHTFVFL; listed as Homo sapiens)
- binding capacity to HLA-A2.1 molecules (HLA-A2.1 molecules): Neither TARP-2-9 nor TARP-22-30 showed any measurable binding affinity

Substance: TARP-27-35-2L: TARP-27-35 substituted at position 2 with Leu (FLFLRNFSL; listed as Homo sapiens)
- binding affinity to HLA-A2.1 molecules compared with another peptide (HLA-A2.1 molecules): did not alter the binding affinity of the wild-type peptide

Substance: TARP-27-35-9V: TARP-27-35 substituted at position 9 with Val (FVFLRNFSV; listed as Homo sapiens)
- binding affinity to HLA-A2.1 molecules compared with another peptide (HLA-A2.1 molecules): did not alter the binding affinity of the wild-type peptide

Substance: substitution with Ala at position 3 in TARP-27-35: TARP-27-35 with Phe at position 3 replaced by Ala (FVALRNFSL; listed as Homo sapiens)
- binding capacity to HLA-A2.1 molecules (HLA-A2.1 molecules): no binding of the peptide to HLA-A2.1 molecules
